In article PMC3532212 (PLoS ONE, 2012):
“And” between values parts separate entries of the source, which are not always exact repeats. Equal values may be shown once.

What was measured:
[1] = Plasma concentrations during escalating i.v. infusion in anesthetized rats; format: in vivo; settings: male, Sprague Dawley, plasma, iv, anesthetized rat, FTY720 i.v.
Description: (§1) The cardiovascular effects of FTY720 and BAF312 were tested in anesthetized rats (180–200 g). In brief, male Sprague Dawley rats (Charles River) were anesthetized with Inactin (110 mg/kg i.p.) and a tracheotomy performed. The femoral artery and veins were catheterized for measurement of mean arterial pressure and heart rate, collection of blood samples at 20-min intervals (0.2 mL/sample), and for compound infusion/hydration as previously described, [24]; blood samples were also withdrawn in vehicle-treated control rats. FTY720, infused as a hydrochloride salt (0.1, 0.3, 1.0 mg/kg/20-min free base equivalent solubilized in a 100% PEG-400 vehicle), or BAF312 (0.5, 1.5, 5.0 mg/kg/20-min solubilized in a 100% PEG-400 vehicle) were administered via three escalating 20-min infusions (0.011 mL/min) followed by a 1-hr post-treatment period. A blood sample was withdrawn at 20, 40, 60, and 120-minutes for analysis of plasma concentrations of the parent compound, and in the case of FTY720, also the phosphorylated metabolite, (S)-FTY720-P. Statistical significance (p<0.05) was based on a t-test comparing treatment change from baseline (baseline was defined as the period from −30 to 0 minutes) vs. vehicle controls change from baseline at each timepoint without adjustment for multiple comparisons. In a separate group of anesthetized rats in which left ventricular (LV) contractility was also recorded with a Millar pressure transducer introduced into the left ventricle, BAF312 was infused in the same dosing regimen as the studies described above (0.5, 1.5, 5.0 mg/kg/20-min solubilized in a 100% PEG-400 vehicle) and effects on LV dP/dtmax were recorded.

anesthetized rats = experiment: Anesthetized rat cardiovascular study (mean arterial pressure, heart rate); format: in vivo; settings: for heart rate, change below baseline / mean arterial pressure, change below baseline: anesthetized rat, FTY720 i.v.
Description: as §1

[2] = test system: conscious, telemetry-instrumented rats; experiment: Telemetry-instrumented conscious rats, single oral dose hemodynamics; format: in vivo; settings: conscious rat; for mean arterial pressure above baseline, 24-hr mean: vehicle 3.6±1.5
Description: (§2) Mean arterial pressure was assessed in conscious, freely moving male Sprague Dawley rats (n = 6–8/group; Charles River) instrumented with telemetry transmitters (DSI-Ponemah) and housed in metabolism cages as previously described, [26]. Tested compounds were solubilized in a 0.5% Methylcellulose/0.015% Tween 80 vehicle that was also dosed alone (p.o./QD, 5 mL/kg) as a control in the study. FTY720 was administered p.o. at 0.3, 1.0, 3.0, 10.0 mg/kg p.o. as a single dose or p.o./QD at 0.5, 1.5, and 5.0 mg/kg in a chronic study. BAF312 was administered p.o/QD at 0.3, 3.0, and 30 mg/kg as a single dose and in a chronic study. Mean arterial pressure and heart rate are shown as 1-hr and/or 24-hr mean values±SEM as described in the results. Blood samples in satellite rats were withdrawn at various timepoints as described in the results for analysis of plasma concentrations of the parent compound and, in the case of FTY720, also the phosphorylated metabolite, (S)-FTY720-P. Statistical analysis for the single-dose acute studies was based on one-way ANOVA to compare the treatment groups vs. vehicle for each time period after dosing (0–24 hrs, 24–48 hrs, and 48–72 hrs); statistical significance (p<0.05) was detected by Dunnett’s post-hoc test to compare treatment with vehicle controls. The statistical analysis in the chronic studies were based on one-way ANOVA with repeated measures to compare the treatment arms; statistical significance (p<0.05) was detected by Dunnett’s post-hoc test to compare treatment with vehicle controls.

[3] = test system: conscious, telemetry-instrumented rats; experiment: Telemetry-instrumented conscious rats, repeat-dosing hemodynamics; format: in vivo; settings: conscious rat; for 24-hr mean change in heart rate: vehicle −2±1; for mean arterial pressure increase relative to baseline, 24-hr mean over the treatment period: vehicle 3.7±0.5
Description: as §2, with “BAF312 was administered p.o/QD at 0.3, 3.0, and 30 mg/kg as a single dose and in a chronic study.” left out

[4] = Plasma concentrations in repeat-dosing study, satellite rats; format: in vivo, rat; settings: for concentration at 0 h / concentration at 4 h / concentration at 8 h / concentration at 24 h: male, Sprague Dawley, rat, plasma, po, mean±SEM; for Plasma concentration at Tmax / Terminal plasma concentration at Tmax: satellite rats; for Plasma concentration at Tmax: day 1; for Terminal plasma concentration at Tmax: last day of study
Description: as §2

[5] = end of 0.1 mg/kg/20 min infusion
[6] = end of 0.3 mg/kg/20 min infusion
[7] = end of 1.0 mg/kg/20 min infusion

concentration at 20 min [1, 5]: 54 ± 9 nM
concentration at 40 min [1, 6]: 198 ± 13 nM
concentration at 60 min [1, 7]: 375 ± 46 nM
concentration at 120 min ([1]; end of 60-min post-treatment period): 121 ± 5 nM
concentration at 0 h ([4]; 0.5 mg/kg/day, FTY720 0.5 mg/kg/d p.o., Terminal (last day)): 18 ± 2 nM
concentration at 4 h ([4]; 0.5 mg/kg/day, FTY720 0.5 mg/kg/d p.o., Terminal (last day), 4 hr post-dose): 24 ± 3 nM
concentration at 8 h ([4]; 0.5 mg/kg/day, FTY720 0.5 mg/kg/d p.o., Terminal (last day), 8 hr post-dose): 63 ± 37 nM
concentration at 24 h ([4]; 0.5 mg/kg/day, FTY720 0.5 mg/kg/d p.o., Terminal (last day), 24 hr post-dose): 40 ± 27 nM
concentration at 4 h ([4]; 0.5 mg/kg/day, FTY720 0.5 mg/kg/d p.o., Day 1, 4 hr post-dose): 9 ± 1 nM
concentration at 8 h ([4]; 0.5 mg/kg/day, FTY720 0.5 mg/kg/d p.o., Day 1, 8 hr post-dose): 13 ± 2 nM
concentration at 24 h ([4]; 0.5 mg/kg/day, FTY720 0.5 mg/kg/d p.o., Day 1, 24 hr post-dose): 8 ± 1 nM
concentration at 0 h ([4]; 1.5 mg/kg/day, FTY720 1.5 mg/kg/d p.o., Terminal (last day)): 58 ± 7 nM
concentration at 4 h ([4]; 1.5 mg/kg/day, FTY720 1.5 mg/kg/d p.o., Terminal (last day), 4 hr post-dose): 60 ± 6 nM
concentration at 8 h ([4]; 1.5 mg/kg/day, FTY720 1.5 mg/kg/d p.o., Terminal (last day), 8 hr post-dose): 81 ± 4 nM
concentration at 24 h ([4]; 1.5 mg/kg/day, FTY720 1.5 mg/kg/d p.o., Terminal (last day), 24 hr post-dose): 44 ± 5 nM
concentration at 4 h ([4]; 1.5 mg/kg/day, FTY720 1.5 mg/kg/d p.o., Day 1, 4 hr post-dose): 45 ± 4 nM
concentration at 8 h ([4]; 1.5 mg/kg/day, FTY720 1.5 mg/kg/d p.o., Day 1, 8 hr post-dose): 53 ± 9 nM
concentration at 24 h ([4]; 1.5 mg/kg/day, FTY720 1.5 mg/kg/d p.o., Day 1, 24 hr post-dose): 34 ± 4 nM
concentration at 0 h ([4]; 5 mg/kg/day, FTY720 5.0 mg/kg/d p.o., Terminal (last day)): 207 ± 27 nM
concentration at 4 h ([4]; 5 mg/kg/day, FTY720 5.0 mg/kg/d p.o., Terminal (last day), 4 hr post-dose): 229 ± 21 nM
concentration at 8 h ([4]; 5 mg/kg/day, FTY720 5.0 mg/kg/d p.o., Terminal (last day), 8 hr post-dose): 176 ± 37 nM
concentration at 24 h ([4]; 5 mg/kg/day, FTY720 5.0 mg/kg/d p.o., Terminal (last day), 24 hr post-dose): 134 ± 21 nM
concentration at 4 h ([4]; 5 mg/kg/day, FTY720 5.0 mg/kg/d p.o., Day 1, 4 hr post-dose): 98 ± 14 nM
concentration at 8 h ([4]; 5 mg/kg/day, FTY720 5.0 mg/kg/d p.o., Day 1, 8 hr post-dose): 102 ± 4 nM
concentration at 24 h ([4]; 5 mg/kg/day, FTY720 5.0 mg/kg/d p.o., Day 1, 24 hr post-dose): 17 ± 40 nM
Plasma concentration at Tmax ([4]; FTY720 0.5 mg/kg/d p.o.): 13 ± 2 nM
Terminal plasma concentration at Tmax ([4]; FTY720 0.5 mg/kg/d p.o.): 63 ± 37 nM
Plasma concentration at Tmax ([4]; FTY720 1.5 mg/kg/d p.o.): 53 ± 9 nM
Terminal plasma concentration at Tmax ([4]; FTY720 1.5 mg/kg/d p.o.): 81 ± 4 nM
Plasma concentration at Tmax ([4]; FTY720 5.0 mg/kg/d p.o.): 120 ± 17 nM
Terminal plasma concentration at Tmax ([4]; FTY720 5.0 mg/kg/d p.o.): 229 ± 21 nM
SMILES: CCCCCCCCc1ccc(CCC(N)(CO)CO)cc1 [FTY720]
heart rate, change below baseline (anesthetized rats; [5]): −71±26 beats/min
mean arterial pressure, change below baseline (anesthetized rats; [5]): −9±3 mmHg
heart rate, change below baseline (anesthetized rats; [6]): −139±37 beats/min
mean arterial pressure, change below baseline (anesthetized rats; [6]): −22±4 mmHg
heart rate, change below baseline (anesthetized rats; [7]): −173±26 beats/min
mean arterial pressure, change below baseline (anesthetized rats; [7]): −24±4 mmHg
effect on heart rate of acute i.v. infusion (anesthetized rats; anesthetized rats, FTY720 0.1, 0.3, 1.0 mg/kg/20 min or BAF312 0.5, 1.5, 5.0 mg/kg/20 min): acute bradycardia
mean arterial pressure above baseline, 24-hr mean ([2]; FTY720 3 mg/kg single oral dose, day 1): 13.5±1.8 mmHg
mean arterial pressure above baseline, 24-hr mean ([2]; FTY720 10 mg/kg single oral dose, day 1): 19.9±2.8 mmHg
heart rate change from baseline, 24-hr mean ([2]; FTY720 10 mg/kg single oral dose, day 1, vehicle 15±3): −13±6 beats/min
changes in heart rate vs vehicle after day 1 ([2]; FTY720 single oral dose, after day 1 up to 72 hours): not different from vehicle control rats
24-hr mean change in heart rate ([3]; FTY720 0.5 mg/kg p.o./QD repeat dosing): 11±2 beats/min
mean arterial pressure increase relative to baseline, 24-hr mean over the treatment period ([3]; FTY720 0.5 mg/kg/d p.o./QD, 0.5 mg/kg/day): 8.4 mmHg and 8.4±0.4 mmHg
24-hr mean change in heart rate ([3]; FTY720 1.5 mg/kg p.o./QD repeat dosing): 1±1 beats/min
mean arterial pressure increase relative to baseline, 24-hr mean over the treatment period ([3]; FTY720 1.5 mg/kg/d p.o./QD, 1.5 mg/kg/day): 12.8 mmHg and 12.8±0.4 mmHg
24-hr mean change in heart rate ([3]; FTY720 5.0 mg/kg p.o./QD repeat dosing): 1±3 beats/min
mean arterial pressure increase relative to baseline, 24-hr mean over the treatment period ([3]; FTY720 5.0 mg/kg/d p.o./QD, 5 mg/kg/day): 16.2 mmHg and 16.2±0.8 mmHg
bradycardia during repeat dosing ([3]; FTY720 0.5, 1.5, 5.0 mg/kg/d p.o.): no acute or sustained bradycardia
